Publication PMC7898037, “Improving mitochondria and ER stability helps eliminate upper motor neuron degeneration that occurs due to mSOD1 toxicity and TDP‐43 pathology” (Clinical and Translational Medicine, 2021)

How the values were obtained:
hSOD1^G93A‐UeGFP mice = test: Hanging wire test (max 60 s), hSOD1^G93A‐UeGFP mice; format: in vivo; parameters: Mean Diff. (wire hanging), vehicle vs. NU-9 / Mean (wire hanging): unit not given here; conditions: for wire hanging, Average / Mean (wire hanging): hSOD1G93A-UeGFP
Protocol: hSOD1^G93A‐UeGFP, prpTDP‐43^A315T‐UeGFP and WT‐UeGFP mice were weighed and the required NU‐9 dose per weight was calculated (20 or 100 mg/kg), which was administered once daily by oral gavage, starting at postnatal day (P)60 and continuing until P120. Animals from the untreated group received the vehicle (NMP and olive oil) only. For oral administration purposes, 20 ga × 38 mm plastic feeding tubes were used (Instech Laboratories, Inc). The gavage tip was inserted into the mouth directly over the tongue and into the pharynx. While observing the swallowing reflex, the tip was safely and smoothly slid into the esophagus. Once the administration was completed, the gavage tip was pulled straight out.
Behavior data were collected from hSOD1^G93A‐UeGFP and WT‐UeGFP mice (starting at P60 and every 7 days until P116) and from prpTDP‐43^A315T‐UeGFP mice (at P60, P90, and P120) with the following number of mice for each group: WT‐UeGFP vehicle (n = 10), hSOD1^G93A‐UeGFP vehicle (n = 6), WT‐UeGFP 20 mg/kg/day NU‐9 (n = 5), hSOD1^G93A‐UeGFP 20 mg/kg/day NU‐9 (n = 7), WT‐UeGFP 100 mg/kg/day NU‐9 (n = 11), hSOD1^G93A‐UeGFP 100 mg/kg/day NU‐9 (n = 9), prpTDP‐43^A315T‐UeGFP untreated (n ≥ 3), and prpTDP‐43^A315T‐UeGFP 100 mg/kg/day NU‐9 (n = 4) (Table S3).
Mice were placed on a wire mesh, which was then inverted and suspended above the home cage; the time when the animal fell was recorded. This test was performed three times for a maximum of 60 s each session, with a 1‐min rest period between each trial. The average performance for each session is presented as the average of the three trials.

cytochrome P450s = conditions: cited from earlier work

## C[C@H](Oc1cc(C(F)(F)F)cc(C(F)(F)F)c1)C1CC(=O)CC(=O)C1 [NU‐9]
hSOD1^G93A‐UeGFP mice; hSOD1G93A-UeGFP vehicle vs. NU-9 20 mg/kg/day, P109
  Mean Diff. (wire hanging), vehicle vs. NU-9: 6.746
hSOD1^G93A‐UeGFP mice; hSOD1G93A-UeGFP vehicle vs. NU-9 20 mg/kg/day, P116
  Mean Diff. (wire hanging), vehicle vs. NU-9: -4.722
hSOD1^G93A‐UeGFP mice; hSOD1G93A-UeGFP vehicle vs. NU-9 100 mg/kg/day, P60
  Mean Diff. (wire hanging), vehicle vs. NU-9: -5.333
hSOD1^G93A‐UeGFP mice; hSOD1G93A-UeGFP vehicle vs. NU-9 100 mg/kg/day, P67
  Mean Diff. (wire hanging), vehicle vs. NU-9: 1.222
hSOD1^G93A‐UeGFP mice; hSOD1G93A-UeGFP vehicle vs. NU-9 100 mg/kg/day, P74
  Mean Diff. (wire hanging), vehicle vs. NU-9: -7.519
hSOD1^G93A‐UeGFP mice; hSOD1G93A-UeGFP vehicle vs. NU-9 100 mg/kg/day, P81
  Mean Diff. (wire hanging), vehicle vs. NU-9: -5.148
hSOD1^G93A‐UeGFP mice; hSOD1G93A-UeGFP vehicle vs. NU-9 100 mg/kg/day, P88
  Mean Diff. (wire hanging), vehicle vs. NU-9: -9.13
hSOD1^G93A‐UeGFP mice; hSOD1G93A-UeGFP vehicle vs. NU-9 100 mg/kg/day, P95
  Mean Diff. (wire hanging), vehicle vs. NU-9: -7.704
hSOD1^G93A‐UeGFP mice; hSOD1G93A-UeGFP vehicle vs. NU-9 100 mg/kg/day, P102
  Mean Diff. (wire hanging), vehicle vs. NU-9: -10.96
hSOD1^G93A‐UeGFP mice; hSOD1G93A-UeGFP vehicle vs. NU-9 100 mg/kg/day, P109
  Mean Diff. (wire hanging), vehicle vs. NU-9: -14.67
hSOD1^G93A‐UeGFP mice; hSOD1G93A-UeGFP vehicle vs. NU-9 100 mg/kg/day, P116
  Mean Diff. (wire hanging), vehicle vs. NU-9: -28.54
hSOD1^G93A‐UeGFP mice; NU-9 20 mg/kg/day po, P60
  wire hanging, Average: 55.1905 s
hSOD1^G93A‐UeGFP mice; NU-9 20 mg/kg/day po, P67
  wire hanging, Average: 51.7143 s
hSOD1^G93A‐UeGFP mice; NU-9 20 mg/kg/day po, P74
  wire hanging, Average: 55.2381 s
hSOD1^G93A‐UeGFP mice; NU-9 20 mg/kg/day po, P81
  wire hanging, Average: 54.0952 s
hSOD1^G93A‐UeGFP mice; NU-9 20 mg/kg/day po, P88
  wire hanging, Average: 52.9524 s
hSOD1^G93A‐UeGFP mice; NU-9 20 mg/kg/day po, P95
  wire hanging, Average: 54.8095 s
hSOD1^G93A‐UeGFP mice; NU-9 20 mg/kg/day po, P102
  wire hanging, Average: 43 s
hSOD1^G93A‐UeGFP mice; NU-9 20 mg/kg/day po, P109
  wire hanging, Average: 37.4762 s
hSOD1^G93A‐UeGFP mice; NU-9 20 mg/kg/day po, P116
  wire hanging, Average: 27.3333 s
hSOD1^G93A‐UeGFP mice; NU-9 20 mg/kg/day, P60
  Mean (wire hanging): 55.19
hSOD1^G93A‐UeGFP mice; NU-9 20 mg/kg/day, P67
  Mean (wire hanging): 51.71
hSOD1^G93A‐UeGFP mice; NU-9 20 mg/kg/day, P74
  Mean (wire hanging): 55.24
hSOD1^G93A‐UeGFP mice; NU-9 20 mg/kg/day, P81
  Mean (wire hanging): 54.1
hSOD1^G93A‐UeGFP mice; NU-9 20 mg/kg/day, P88
  Mean (wire hanging): 52.95
hSOD1^G93A‐UeGFP mice; NU-9 20 mg/kg/day, P95
  Mean (wire hanging): 54.81
hSOD1^G93A‐UeGFP mice; NU-9 100 mg/kg/day po, P60
  wire hanging, Average: 60 s
hSOD1^G93A‐UeGFP mice; NU-9 100 mg/kg/day po, P67
  wire hanging, Average: 54.6667 s
hSOD1^G93A‐UeGFP mice; NU-9 100 mg/kg/day po, P74
  wire hanging, Average: 59.2963 s
hSOD1^G93A‐UeGFP mice; NU-9 100 mg/kg/day po, P81
  wire hanging, Average: 58.1481 s
hSOD1^G93A‐UeGFP mice; NU-9 100 mg/kg/day po, P88
  wire hanging, Average: 59.6296 s
hSOD1^G93A‐UeGFP mice; NU-9 100 mg/kg/day po, P95
  wire hanging, Average: 57.2593 s
hSOD1^G93A‐UeGFP mice; NU-9 100 mg/kg/day po, P102
  wire hanging, Average: 53.2963 s
hSOD1^G93A‐UeGFP mice; NU-9 100 mg/kg/day po, P109
  wire hanging, Average: 58.8889 s
hSOD1^G93A‐UeGFP mice; NU-9 100 mg/kg/day po, P116
  wire hanging, Average: 51.1481 s
hSOD1^G93A‐UeGFP mice; NU-9 100 mg/kg/day, P60
  Mean (wire hanging): 60
hSOD1^G93A‐UeGFP mice; NU-9 100 mg/kg/day, P67
  Mean (wire hanging): 54.67
hSOD1^G93A‐UeGFP mice; NU-9 100 mg/kg/day, P74
  Mean (wire hanging): 59.3
hSOD1^G93A‐UeGFP mice; NU-9 100 mg/kg/day, P81
  Mean (wire hanging): 58.15
hSOD1^G93A‐UeGFP mice; NU-9 100 mg/kg/day, P88
  Mean (wire hanging): 59.63
hSOD1^G93A‐UeGFP mice; NU-9 100 mg/kg/day, P95
  Mean (wire hanging): 57.26
hSOD1^G93A‐UeGFP mice; hSOD1^G93A‐UeGFP mice, 100 mg/kg/day, P102
  hanging wire test, latency to fall: 53.3 ± 2.9 s
Cytochrome P450s; 5 CYPs, at 3 µM
  CYP inhibition: 5 CYPs; <10% at 3 µM
Cytochrome P450s
  inhibition of cytochrome P450s: little inhibition
